{
  "source": "patent US20070212786A1",
  "about": "“Monitoring heparin by microelectronic devices” (priority 2005, published 2007)",
  "target": "T1, AT-III (Homo sapiens, UniProt P01008)",
  "T1 construct": "purchased Bayer Corp",
  "T1 sequence (P01008 33-464)": "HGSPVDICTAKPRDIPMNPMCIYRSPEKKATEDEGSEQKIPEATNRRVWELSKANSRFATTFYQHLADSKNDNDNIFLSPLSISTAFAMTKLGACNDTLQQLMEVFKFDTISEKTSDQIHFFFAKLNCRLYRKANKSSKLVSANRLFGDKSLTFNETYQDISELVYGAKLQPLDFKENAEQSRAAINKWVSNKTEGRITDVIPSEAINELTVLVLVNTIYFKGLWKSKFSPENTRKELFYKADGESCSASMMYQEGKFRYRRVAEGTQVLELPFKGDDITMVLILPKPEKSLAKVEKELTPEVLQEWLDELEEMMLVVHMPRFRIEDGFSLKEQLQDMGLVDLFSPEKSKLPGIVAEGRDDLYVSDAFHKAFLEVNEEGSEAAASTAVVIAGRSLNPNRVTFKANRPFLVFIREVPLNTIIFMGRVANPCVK",
  "assay": "AT-III field-effect sensor binding (differential surface potential dose-response)",
  "details": "covalently immobilized biotinylated AT-III on the active sensor, BSA-passivated control sensor, dose-response curve FIG. 4B",
  "excerpt": "In one embodiment, AT-III is used as a covalently immobilized surface receptor. In this embodiment, the present invention can monitor active heparin. FIG. 4A illustrates the surface immobilization chemistry according to this embodiment. The surface immobilization chemistry involves aldehyde-terminated silanization of the SiO2 surface, followed by the reductive amination of the aldehyde groups to the surface-exposed amino groups of avidin, blocking the unreacted sites by ethanolamine, and attachment of covalently-immobilized avidin to biotinylated AT-III. […] Upon deblocking, the resulting bAT-III remains fully active because the heparin-binding site remains intact and unhindered because the introduced biotin groups are positioned away from it. This immobilization strategy ensures full activity and the desired surface orientation of AT-III for maximizing the sensor performance. […] The selectivity of the AT-III sensor to heparin sequence was measured by examining the binding affinity to chondroitin sulfate, a negatively charged polysaccharide structurally related to heparin. […]\nThe surface potential of the filed sensitive region was determined by applying an AC signal (50 mV sine wave at 4 kHz) to the reference electrode and measuring the resulting current through the EIS structure with a current preamp (Keithley Model 428) and lock-in amplifier. […]",
  "data": [
    {"substance": "chondroitin sulfate", "values": [
      {"measurement": "response of the AT-III sensor (binding affinity, selectivity versus heparin)", "result": "neglible"}
    ]}
  ]
}
